The results in this text go back to PubChem BioAssay AID743423 (Vanderbilt Specialized Chemistry Center, 2014).

Active and inactive are the calls of the source. No rule for the calls is given here.

Sequence of Metabotropic glutamate receptor 4 (Homo sapiens) (Q14833 whole entry, looked up): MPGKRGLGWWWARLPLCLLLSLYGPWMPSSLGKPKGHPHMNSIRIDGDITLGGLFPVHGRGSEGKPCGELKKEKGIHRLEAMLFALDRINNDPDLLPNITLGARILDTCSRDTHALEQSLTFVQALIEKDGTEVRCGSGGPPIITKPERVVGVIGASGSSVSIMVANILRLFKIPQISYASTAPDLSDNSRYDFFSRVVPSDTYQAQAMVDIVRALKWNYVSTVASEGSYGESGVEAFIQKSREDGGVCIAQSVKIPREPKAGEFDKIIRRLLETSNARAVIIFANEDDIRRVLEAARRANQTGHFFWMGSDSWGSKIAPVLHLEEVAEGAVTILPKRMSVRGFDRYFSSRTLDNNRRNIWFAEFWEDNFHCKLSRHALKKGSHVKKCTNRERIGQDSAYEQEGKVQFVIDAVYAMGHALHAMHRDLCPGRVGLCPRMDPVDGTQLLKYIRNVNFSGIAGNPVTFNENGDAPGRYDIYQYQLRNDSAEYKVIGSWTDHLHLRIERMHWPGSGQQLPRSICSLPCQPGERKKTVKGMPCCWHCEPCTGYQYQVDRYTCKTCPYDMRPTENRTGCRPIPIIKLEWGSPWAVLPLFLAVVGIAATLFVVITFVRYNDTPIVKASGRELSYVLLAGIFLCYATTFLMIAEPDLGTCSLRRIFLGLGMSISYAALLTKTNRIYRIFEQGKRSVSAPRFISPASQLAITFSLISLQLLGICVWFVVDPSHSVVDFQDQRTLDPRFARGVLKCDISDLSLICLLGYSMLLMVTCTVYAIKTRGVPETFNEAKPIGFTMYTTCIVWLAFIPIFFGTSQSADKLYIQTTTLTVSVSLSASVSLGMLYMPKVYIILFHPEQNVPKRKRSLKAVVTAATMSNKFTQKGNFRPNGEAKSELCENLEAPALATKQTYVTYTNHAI

The first assay has as its target Metabotropic glutamate receptor 4 (Homo sapiens) (UniProt Q14833). Nature of the assay: mGlu4 positive allosteric modulator potency, dose response, selectivity assay for mGlu7/mGlu8 PAM project, CHO Gqi5 cells, Fluo-4 calcium (AID 743423). The conditions noted are these: Fluo-4 calcium fluorescence.
Consider `COC(=O)c1ccc(-n2c(C)cc(C(=O)COc3ccc(NC(C)=O)cc3)c2C)cc1`, for which the EC50 was 10 µM.
Same read-out and setting: then `CC(=O)Nc1ccc(OCC(=O)c2cc(C)n(-c3ccc(OC(F)F)cc3)c2C)cc1`, with 10 µM.
The same measure, in the same setting: then `COC(=O)c1ccc(-n2c(C)cc(C(=O)CSc3ccc(N(C)C(C)=O)cc3)c2C)cc1`, with 10 µM.
Regarding `CC(=O)Nc1ccc(SCC(=O)c2cc(C)n(-c3ccc(S(N)(=O)=O)cc3)c2C)cc1`, the EC50 is 10 µM.
For the compound `COC(=O)c1ccc(-n2c(C)cc(C(=O)CSCc3cccc(C)c3)c2C)cc1`, the EC50 was 10 µM.
Same read-out and setting: as for `CCOc1ccc(-n2c(C)cc(C(=O)CSCc3ccc(OC)cc3)c2C)cc1`, the figure is 10 µM; as for `CC(=O)Nc1ccc(SCC(=O)c2cc(C)n(CC3COc4ccccc4O3)c2C)cc1` (stereo not drawn), 2.2 µM.
Take `COC(=O)c1ccc(-n2c(C)cc(C(=O)CSCc3ccc(OC)cc3)c2C)cc1`: the 50% effective concentration (EC50) was 1 µM.
The same measure, in the same setting: as for `CCn1c(C)cc(C(=O)CSc2ccc(NC(C)=O)cc2)c1C`, the figure is 10 µM.
Same read-out and setting: as for `COc1ccc(SCC(=O)c2cc(C)n(-c3ccc(OC(F)F)cc3)c2C)cc1`, the figure is 10 µM.
Consider `CC(=O)Nc1ccc(SCC(=O)c2cc(C)n(-c3cccc(F)c3)c2C)cc1`, for which the concentration for a half-maximal effect (EC50) is 3.3 µM.
Same read-out and setting: as for `CC(=O)Nc1ccc(SCC(=O)c2cc(C)n(-c3nc(C)cs3)c2C)cc1`, the figure is 10 µM.
Consider `COC(=O)c1ccc(-n2c(C)cc(C(=O)CSc3ccc(NC(C)=O)cc3)c2C)cc1`, for which the EC50 is 3.43 µM.
On the same count and under the same terms, as for `CCOc1ccc(-n2c(C)cc(C(=O)CSc3ccc(OC)cc3)c2C)cc1`, the figure is 10 µM; as for `CC(=O)Nc1ccc(SCC(=O)c2cc(C)n(CC3CCCO3)c2C)cc1` (stereo not drawn), 10 µM.
Take `COC(=O)c1ccc(-n2c(C)cc(C(=O)COc3ccc(OC(C)=O)cc3)c2C)cc1`: the EC50 was 10 µM.
On the same count and under the same terms, as for `CC(=O)Nc1ccc(SCC(=O)c2cc(C)n(CCc3cccs3)c2C)cc1`, the figure is 2.6 µM.

The assay is the same for the next values; noted with them: Fluo-4 calcium fluorescence, at 30 µM (top of the series).
`CCOc1ccc(-n2c(C)cc(C(=O)CSCc3cccc(C)c3)c2C)cc1`: the “% glutamate max response” value is “inactive”.
Consider `CC(=O)Nc1ccc(SCC(=O)c2cc(C)n(-c3ccccc3F)c2C)cc1`, for which the % glutamate max response is 22.3.
For the compound `COc1ccc(CSCC(=O)c2cc(C)n(-c3ccc(OC(F)F)cc3)c2C)cc1`, the “% glutamate max response” value was “inactive”.
In the case of `COC(=O)c1ccc(-n2c(C)cc(C(=O)CNc3ccc(C(=O)O)cc3)c2C)cc1`, the “% glutamate max response” value is “inactive”.
Same read-out and setting: as for `COC(=O)c1ccc(-n2c(C)cc(C(=O)COc3cccc(N(C)C)c3)c2C)cc1`, the entry is “inactive”; as for `Cc1ccc(CSCC(=O)c2cc(C)n(-c3ccc(OC(F)F)cc3)c2C)cc1`, “inactive”.

Usually EC50 stands for the midpoint of the concentration-response curve.
